Results published in US20260355196A1, “INHIBITORS AND DEGRADERS OF PIP4K PROTEIN” (Larkspur Biosciences, Inc., priority 2023, published 2026).

Biological target: T1, PIP4K2C (Homo sapiens, UniProt Q8TBX8)
T1 sequence (Q8TBX8 1-421): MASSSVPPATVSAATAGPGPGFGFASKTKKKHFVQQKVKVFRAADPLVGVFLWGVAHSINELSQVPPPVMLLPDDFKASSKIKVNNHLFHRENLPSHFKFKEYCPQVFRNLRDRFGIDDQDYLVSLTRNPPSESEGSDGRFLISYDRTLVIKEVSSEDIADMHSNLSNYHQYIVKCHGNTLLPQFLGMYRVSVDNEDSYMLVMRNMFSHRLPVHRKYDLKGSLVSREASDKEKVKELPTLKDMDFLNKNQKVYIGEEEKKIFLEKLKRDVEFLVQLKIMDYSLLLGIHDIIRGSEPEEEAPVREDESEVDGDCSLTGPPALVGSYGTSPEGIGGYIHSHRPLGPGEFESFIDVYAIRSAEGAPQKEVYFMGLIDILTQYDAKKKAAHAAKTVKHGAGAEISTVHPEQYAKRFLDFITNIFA
Experiment: HiBiT PIP4K2C degradation assay in MOLT-4 cells (endogenous PIP4K2C C-terminally tagged with HiBiT)
Format: cell-based
Set-up: untagged in primary human PBMCs and monocyte-derived dendritic cells
Conditions: 6 hours of incubation time, rather than 24 hours; MOLT-4, top concentration 10 micromolar; read-out: HiBIT-degradation MOLT4 PIP4k2C DC50 (6 hours, marked *)
Summary of the method: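 DC50 derived by Hill fit of luminescence from Nano-Glo HiBiT lytic detection. Cells were HiBiT knock-in MOLT-4 (C-terminal tag on endogenous PIP4K2C), exposed 6 h or 24 h at 37 C to compound, top concentration 10 micromolar, 3-fold steps, 10 points, duplicates.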

Row | SMILES | DC50
1 | Cn1nc(C2CCC(=O)NC2=O)c2ccc(N3CCN(CC4CCN(C(=O)O[C@H]5CC[C@H](Nc6ncc(F)c(-c7cccc(-c8ccccc8)c7)n6)CC5)CC4)CC3)cc21 (stereo partly drawn) [Compound 643, trans-4-((4-([1,1′-biphenyl]-3-yl)-5-fluoropyrimidin-2-yl)amino)cyclohexyl 4-((4-(3-(2,6-dioxopiperidin-3-yl)-1-methyl-1H-indazol-6-yl)piperazin-1-yl)methyl)piperidine-1-carboxylate] | < 500 nM
2 | O=C1CCC(Nc2ccc(C3CCN([C@H]4CC[C@H](NC(=O)[C@H]5CC[C@H](Nc6ncc(F)c(-c7cccc(N8CCOCC8=O)c7)n6)CC5)CC4)CC3)c(F)c2)C(=O)N1 (stereo partly drawn) [Compound 547, trans-N-(trans-4-(4-(4-((2,6-dioxopiperidin-3-yl)amino)-2-fluorophenyl)piperidin-1-yl)cyclohexyl)-4-((5-fluoro-4-(3-(3-oxomorpholino)phenyl)pyrimidin-2-yl)amino)cyclohexane-1-carboxamide] | < 500 nM
3 | O=C1CCC(Nc2ccc(C3CCN([C@H]4CC[C@H](C(=O)N[C@H]5CC[C@H](Nc6ncc(F)c(-c7cccc(N8CCOCC8)c7)n6)CC5)CC4)CC3)c(F)c2)C(=O)N1 (stereo partly drawn) [Compound 659, trans-(1r,4R)-4-(4-(4-((2,6-dioxopiperidin-3-yl)amino)-2-fluorophenyl)piperidin-1-yl)-N-((1r,4R)-4-((5-fluoro-4-(3-morpholinophenyl)pyrimidin-2-yl)amino)cyclohexyl)cyclohexane-1-carboxamide] | < 500 nM
4 | Cn1nc(C2CCC(=O)NC2=O)c2ccc(N3CCN([C@H]4CC[C@H](NC(=O)[C@H]5CC[C@H](Nc6ncc(F)c(-c7cccc(-c8ccc[nH]c8=O)c7)n6)CC5)CC4)CC3)cc21 (stereo partly drawn) [Compound 404, trans-(1r,4R)—N-((1r,4R)-4-(4-(3-(2,6-dioxopiperidin-3-yl)-1-methyl-1H-indazol-6-yl)piperazin-1-yl)cyclohexyl)-4-((5-fluoro-4-(3-(2-oxo-1,2-dihydropyridin-3-yl)phenyl)pyrimidin-2-yl)amino)cyclohexane-1-carboxamide] | > 5000 nM
5 | O=C1CCC(Nc2ccc(C3CCN(CC4CCN(C(=O)[C@H]5CC[C@H](Nc6ncc(F)c(-c7cccc(N8CCOCC8)c7)n6)CC5)CC4)CC3)c(F)c2)C(=O)N1 (stereo partly drawn) [Compound 672, trans-3-((3-fluoro-4-(1-((1-(4-((5-fluoro-4-(3-morpholinophenyl)pyrimidin-2-yl)amino)cyclohexane-1-carbonyl)piperidin-4-yl)methyl)piperidin-4-yl)phenyl)amino)piperidine-2,6-dione] | < 500 nM
6 | O=C1CCC(Nc2ccc(C3CCN(C(=O)CC4(O)CCN(C(=O)O[C@H]5CC[C@H](Nc6ncc(F)c(-c7cccc(-n8ccccc8=O)c7)n6)CC5)CC4)CC3)c(F)c2)C(=O)N1 (stereo partly drawn) [Compound 663, trans-4-((5-fluoro-4-(3-(2-oxopyridin-1 (2H)-yl)phenyl)pyrimidin-2-yl)amino)cyclohexyl 4-(2-(4-(4-((2,6-dioxopiperidin-3-yl)amino)-2-fluorophenyl)piperidin-1-yl)-2-oxoethyl)-4-hydroxypiperidine-1-carboxylate] | < 500 nM
7 | O=C1CC[C@@H](Nc2ccc(C3CCN([C@H]4CC[C@H](NC(=O)[C@H]5CC[C@H](Nc6ncc(F)c(-c7cccc(N8CCCOC8=O)n7)n6)CC5)CC4)CC3)c(F)c2)C(=O)N1 [Compound 519, (trans)-N-((trans)-4-(4-(4-((2,6-dioxopiperidin-3-yl)amino)-2-fluorophenyl)piperidin-1-yl)cyclohexyl)-4-((5-fluoro-4-(6-(2-oxo-1,3-oxazinan-3-yl)pyridin-2-yl)pyrimidin-2-yl)amino)cyclohexane-1-carboxamide] | < 500 nM
8 | O=C1CCC(Nc2ccc(C3CCN(CC4CCN(C(=O)[C@H]5CC[C@H](Nc6ncc(F)c(-c7cccc(N8CCCOC8=O)c7)n6)CC5)CC4)CC3)c(F)c2)C(=O)N1 (stereo partly drawn) [Compound 427, trans-3-((3-fluoro-4-(1-((1-(4-((5-fluoro-4-(3-(2-oxo-1,3-oxazinan-3-yl)phenyl)pyrimidin-2-yl)amino)cyclohexane-1-carbonyl)piperidin-4-yl)methyl)piperidin-4-yl)phenyl)amino)piperidine-2,6-dione] | < 500 nM
9 | Cn1nc(C2CCC(=O)NC2=O)c2ccc(C3CCN([C@H]4CC[C@H](CC(=O)N[C@H]5CC[C@H](Nc6ncc(F)c(-c7cccc(-n8ccccc8=O)c7)n6)CC5)CC4)CC3)cc21 (stereo partly drawn) [Compound 507, trans-2-((1r,4R)-4-(4-(3-(2,6-dioxopiperidin-3-yl)-1-methyl-1H-indazol-6-yl)piperidin-1-yl)cyclohexyl)-N-((1r,4R)-4-((5-fluoro-4-(3-(2-oxopyridin-1(2H)-yl)phenyl)pyrimidin-2-yl)amino)cyclohexyl)acetamide] | < 500 nM
10 | O=C1CCC(Nc2ccc(N3CCC(N4CCC(C(=O)N[C@H]5CC[C@H](Nc6ncc(F)c(-c7cccc(-n8ccccc8=O)c7)n6)CC5)CC4)C(F)C3)c(F)c2)C(=O)N1 (stereo partly drawn) [Compound 405, 1′-(4-((2,6-dioxopiperidin-3-yl)amino)-2-fluorophenyl)-3′-fluoro-N-((1r,4r)-4-((5-fluoro-4-(3-(2-oxopyridin-1(2H)-yl)phenyl)pyrimidin-2-yl)amino)cyclohexyl)-[1,4′-bipiperidine]-4-carboxamide] | < 500 nM
11 | O=C1CCC(Nc2ccc(C3CCN(C4CCN(C(=O)O[C@H]5CC[C@H](Nc6ncc(F)c(-c7cccc(N8CCCCC8)c7)n6)CC5)CC4)CC3)c(F)c2)C(=O)N1 (stereo partly drawn) [Compound 689, trans-4-((5-fluoro-4-(3-(piperidin-1-yl)phenyl)pyrimidin-2-yl)amino)cyclohexyl 4-(4-((2,6-dioxopiperidin-3-yl)amino)-2-fluorophenyl)-[1,4′-bipiperidine]-1′-carboxylate] | < 500 nM
12 | O=C1CC[C@@H](Nc2ccc(N3CCN([C@H]4CC[C@H](C(=O)N[C@H]5CC[C@H](Nc6ncc(F)c(-c7cccc(-n8ccccc8=O)c7)n6)CC5)CC4)CC3)c(F)c2)C(=O)N1 (single isomer, unassigned) [Compound 602] | < 500 nM

Same assay, conditions: 24 hours incubation, MOLT-4, top concentration 10 micromolar; read-out: HiBIT-degradation MOLT4 PIP4k2C 24 hours DC50

Row | SMILES | DC50
13 | O=C(COc1cccc2c1CN(C1CCC(=O)NC1=O)C2=O)NCCCCC(=O)N1CCC(C(=O)N2CCC(Nc3ncc(Cl)c(-c4cccc(-c5ccccc5)c4)n3)CC2)CC1 (stereo not drawn) [Compound 69, N-(5-(4-(4-((4-([1,1′-biphenyl]-3-yl)-5-chloropyrimidin-2-yl)amino)piperidine-1-carbonyl)piperidin-1-yl)-5-oxopentyl)-2-((2-(2,6-dioxopiperidin-3-yl)-1-oxoisoindolin-4-yl)oxy)acetamide] | < 500 nM
14 | O=C1CCC(n2c(=O)oc3cc(N4CCN(CC5CCN(CC(=O)N6CCC(Nc7ncc(F)c(-c8cccc(-n9ccccc9=O)c8)n7)CC6)CC5)CC4)ccc32)C(=O)N1 (stereo not drawn) [Compound 340, 3-(6-(4-((1-(2-(4-((5-fluoro-4-(3-(2-oxopyridin-1(2H)-yl)phenyl)pyrimidin-2-yl)amino)piperidin-1-yl)-2-oxoethyl)piperidin-4-yl)methyl)piperazin-1-yl)-2-oxobenzo[d]oxazol-3 (2H)-yl)piperidine-2,6-dione] | < 500 nM
15 | Cn1nc(C2CCC(=O)NC2=O)c2ccc(C3CCN(CC4CCN(CC(=O)N5CCC(Nc6ncc(F)c(-c7cccc(-n8ccccc8=O)c7)n6)CC5)CC4)CC3)cc21 (stereo not drawn) [Compound 315, 3-(6-(1-((1-(2-(4-((5-fluoro-4-(3-(2-oxopyridin-1(2H)-yl)phenyl)pyrimidin-2-yl)amino)piperidin-1-yl)-2-oxoethyl)piperidin-4-yl)methyl)piperidin-4-yl)-1-methyl-1H-indazol-3-yl)piperidine-2,6-dione] | < 500 nM
16 | O=C1CCC(Nc2ccc(N3CCN(CC4CCN(CC(=O)N5CCC(Nc6ncc(F)c(-c7cccc(-n8ccccc8=O)c7)n6)CC5)CC4)CC3)c(F)c2)C(=O)N1 (stereo not drawn) [Compound 341, 3-((3-fluoro-4-(4-((1-(2-(4-((5-fluoro-4-(3-(2-oxopyridin-1(2H)-yl)phenyl)pyrimidin-2-yl)amino)piperidin-1-yl)-2-oxoethyl)piperidin-4-yl)methyl)piperazin-1-yl)phenyl)amino)piperidine-2,6-dione] | < 500 nM
17 | Cn1c(=O)n(C2CCC(=O)NC2=O)c2ccc(C3CCN(CCC4CCN(C(=O)[C@H]5CCC[C@@H](Nc6ncc(F)c(-c7cccc(-n8ccccc8=O)c7)n6)C5)CC4)CC3)cc21 (relative stereo) [Compound 291, cis-3-(5-(1-(2-(1-(3-((5-fluoro-4-(3-(2-oxopyridin-1(2H)-yl)phenyl)pyrimidin-2-yl)amino)cyclohexane-1-carbonyl)piperidin-4-yl)ethyl)piperidin-4-yl)-3-methyl-2-oxo-2,3-dihydro-1H-benzo[d]imidazol-1-yl)piperidine-2,6-dione] | < 500 nM

Same assay, conditions: read-out: HiBIT-degradation MOLT4 PIP4k2C 24 hours DC50; 24 hours incubation, MOLT-4, top concentration 10 micromolar

Row | SMILES | DC50
18 | O=C1CCC(Nc2ccc(C3CCN(C4CCN(CCC(=O)N[C@H]5CC[C@H](Nc6ncc(F)c(-c7cccc(-n8ccccc8=O)c7)n6)CC5)CC4)CC3)c(F)c2)C(=O)N1 (stereo partly drawn) [Compound 328, trans-3-(4-(4-((2,6-dioxopiperidin-3-yl)amino)-2-fluorophenyl)-[1,4′-bipiperidin]-1′-yl)-N-(4-((5-fluoro-4-(3-(2-oxopyridin-1(2H)-yl)phenyl)pyrimidin-2-yl)amino)cyclohexyl)propanamide] | < 500 nM
